Data on 3 compounds can be found in patent US20230120666A1, “EXCIPIENTS PROVIDING STABILIZATION AND ENHANCED WATER SOLUBILIZATION AND THEIR USES” (priority 2020, published 2023).

Series [1] in a line: Storage stability of 20 wt % SupraPlex formulations in sealed plastic vial at RT. In kind it is physicochemical. The following applies: loaded in 20 wt % Run #65 in DI water, pH 2.5±0.5, sealed poly(propylene) vial, 12 months.
For series [2] the following is noted: literature value, Chauhan et al.; cited from earlier work.
Series [3] can be described thus: Excipient assisted resveratrol water solubility enhancement. In kind it is physicochemical. Particulars: water with the Excipients of the invention (PHC), aqueous with cosolvent or surfactant or cyclodextrin, thermodynamic from solid.
Excerpt: They were then examined to determine specific water solubility enhancement properties as a function of excipient composition and reaction parameters used for their syntheses.
A short description of series [4]: In vitro dissolution of Polymer Adducts and Hybrid Excipients. The format is physicochemical. Particulars: 0.1 N HCl pH 1.2, SGF pH 1.2, PB pH 6.8, SIF pH 6.8; 37±0.5° C. The protocol:
Simulated Gastric Fluid (SGF pH 1.2), Phosphate Buffer (PB pH 6.8) and Simulated Intestinal Fluid (SIF pH 6.8) as dissolution medium. […] At predetermined time intervals, 1 mL samples were withdrawn and replenished with the same volume of fresh medium. The RSV and CBD content in these samples were determined by using a UV-visible Spectrophotometer (U-3010, Hitachi, Japan) and specific amounts of RSV and CBD dissolved and were monitored and estimated as a function of time.
This multiple, hybrid excipient was then lyophilized and used for dissolution studies.

A short description of series [5]: CBD water solubility / solubility enhancement by UV-Visible spectrometry. In kind it is physicochemical. The following applies: for solubility: thermodynamic from solid. The protocol:
The General Method used to determine the solubility of CBD is as follows:
Water (1 mL) was added to one of the vials. […] A third vial was prepared with 100 mg of the agent, 1 mL of water, and no CBD for use as a background standard for correcting UV-visible spectra. All three vials were processed (ultrasound) together to minimize variations.
CBD solubility was determined by UV-Visible spectrometry.
Three methods were used for background subtraction: • 1. For agents with very little color, the CBD is seen as a peak on the side of a peak that can be readily measured by drawing a tangent line on the interfering peak to estimate a baseline. This is usable for pure samples, such as the commercial cyclodextrins. • 2. […] For strongly colored agents, small deviations in concentration can overwhelm the CBD signal. In these cases, the full spectra are measured and the standard is multiplied by a weighting factor before subtraction. The weighting factor is adjusted to give close to a zero absorbance at many wavelengths across the difference spectrum and the CBD spectrum is what remains.
CBD concentration is calculated as the absorbance at 274 nm in excess of the retentate absorbance relative to the absorbance of the CBD standard. Abs means absorbance in Table 1.

Experiment in series [6]: as above
The format is physicochemical. The following applies: CBD 1 g in 100 mL water, Qsonica Q2000 1 hr at 100% amplitude, no excipient.

The conditions of series [7]: Koch et al. 2020, cited from earlier work.
The test system of the next series is healthy male volunteers. Briefly: In vivo human oral ingestion study of CBD-SupraPlex excipient. Particulars: for effects experienced within 15-30 min after ingestion: CBD-SupraPlex (Run #181) 35.6 μg/mL in DI water. The protocol: A highly documented “in house” CBD-SupraPlex® human oral ingestion study was performed to further evaluate the SupraPlex® Excipients in humans. This study involved two healthy male volunteers: Subject #1 was […], 5′10″, 190 lbs., […] an experienced CBD/THC consumer, and Subject #2 was […], 5′6″, 160 lbs., a naïve, and a THC/CBD non consumer […]).
The CBD-SupraPlex® excipient samples were prepared under sanitary, GLP conditions. All CBD dose concentrations were confirmed by standard HPLC protocols.
The CBD-SupraPlex® excipient samples used for oral ingestion were administered sequentially in three, 10 mL ingestion portions as clear, transparent DI aqueous solutions. The 1st portion was ingested in a sublingual mode and last two portions were ingested by normal swallowing. The esthetic taste features of CBD-SupraPlex® excipient (pH2), in DI water were: sour, citrus-lemon, (80% lemon-10% salt taste), slight terpene, slippery film like texture, but with no after taste. When used in ginger ale, it gave a very pleasant taste. At pH4, the sourness is eliminated to give a pleasant slight lemon taste.
Test 1: 10 mL containing 35.6 μg/mL of CBD in DI water, sublingual over 15 min. Test 2: 15 min. after Test 1, 10 mL/35.6 μg/mL of CBD in DI water, normal swallow over 15 min. Total CBD ingested=712 μg in 20 mL DI water over 30 min. Test 3: 15 min. after Test 2, repeat of Test 2 Total CBD ingested=1068 μg in 30 mL DI water over 45 min. Test 4: 2 days later, 40 mL/35.6 μg/mL of CBD in DI water, normal swallow before evening sleep. […] Subject #1 could rarely experience more than 4 hr. normal sleeper night, but after Test 4 they took a 35.6 μg/mL of CBD in 40 mL DI water, sublingual before sleep 2 days after Test 4. When taken before bedtime, about 1 mg CBD dose level gave an excellent, sustained 7-8 hr. sleep cycle with a rested, clear-headed wake-up, no fogginess or after effect.

For series [8] the following is noted: literature value, Modasiya et al. 2012; cited from earlier work.

Entries after “also recorded” stand apart in the source; their conditions may differ.

On to `Oc1ccc(C=Cc2cc(O)cc(O)c2)cc1` [resveratrol], for which the “solution depletion” value in [1] is “essentially no solution depletion”. The “naked resveratrol solubility in DI water” value in series [2] was 0.04 µg/mL. Also, the solubility in [3] lay within 5010 to 30600 µg/mL. In addition, in [4], the “in vitro dissolution performance” value is “saturation and incomplete dissolution profiles”.
In the case of `C=C(C)[C@@H]1CCC(C)=C[C@H]1c1c(O)cc(CCCCC)cc1O` [CBD, cannabidiol], in series [1], the “solution depletion” value was “essentially no solution depletion”. In addition, the “increased solubility of CBD” value in [5] (in the presence of naked 2HPBCD) worked out at 2508.7 fold; in series [5] (in the presence of naked ACD), 3066.2 fold; in series [5] (in the presence of naked GCD) it was 278.7 fold; in [5] (sonication protocol in DI water, no excipient), 313.6 fold; in [5] (with Run #1 retentate (Example 1), baseline not stated), 2717.8 fold; in [5] (with Run #3 retentate (Example 2), baseline not stated), 2673.2 fold. Besides, the “increased solubility of CBD” value in series [5] (with Run #4 retentate (Example 3), baseline not stated) came to 4843.2 fold; in series [5] (with Run #12 insoluble nanosponge suspension (Example 5), baseline not stated), 3797.9 fold; in [5] (with Run #19 retentate (Example 4), baseline not stated) it was 4634.1 fold. Further, the solubility is 500 to 15100 µg/mL in series [5] (water with the Excipients of the invention, aqueous with cosolvent or surfactant or cyclodextrin, read-out: water solubility of CBD, enhanced); 31 µg/mL in [5] (water, high power sonication, read-out: Water Solubility of CBD); 0.4 µg/mL in [5] (water, low power sonication, read-out: Water Solubility of CBD). The μg-CBD in series [6] worked out at 31.36 µg. Also, the “CBD in water alone” value in series [7] (literature value) is listed as 0.0000627 mg/mL. For the same compound, in series [7] (no sonication), the “Water Solubility of CBD” value is 0.0627 µg/mL. The compound further came in with a sustained sleep cycle in the series with healthy male volunteers (Subject #1, about 1 mg CBD as CBD-SupraPlex (Run #181) before bedtime) of 7 to 8 h. The “effects experienced within 15-30 min after ingestion” value in the series on healthy male volunteers (Subject #1, experienced consumer) is listed as “tingling in fingers, heightened focus, higher energy, relaxed feeling, reduced anxiety, some thirst noted”; in the series with healthy male volunteers (Subject #2, naïve non consumer), “peaceful, relaxed, reduced anxiety, remained alert/coordinated, enhanced talking, laughing, higher energy movement, then some drowsiness after 1 hr”. Further, the “in vitro dissolution performance” value in [4] is “saturation and incomplete dissolution profiles; also recorded: insoluble”.
For the compound `COc1cc(/C=C/C(=O)CC(=O)/C=C/c2ccc(O)c(OC)c2)ccc1O` [curcumin], the “solution depletion” value in series [1] was “essentially no solution depletion”. For the same compound, in [8], the “naked curcumin solubility in DI water” value is 2.67 µg/mL.
